ChEMBL document CHEMBL4196088, “Induction of cell killing and autophagy by amphiphilic pyrrolidine derivatives on human pancreatic cancer cells” (Eur J Med Chem, 2018)
pIC50: −log10 of the molar value.

Tested on: SK-BR-3
Test: Growth inhibition of human SKBR3 cells after 72 hrs
Assay type: functional, cell-based
Details: SK-BR-3, 72 h

| SMILES | pIC50 |
| --- | --- |
| CCCCCCCC/C=C\CCCCCCCCNC[C@H]1NC[C@H](O)[C@@H]1O | 5.00 |
